Reference: US7419969B2 (Bristol-Myers Squibb Company, priority 2004, dated 2008)
pIC50: −log10 of the molar value.

Experiments:
[1] = target: T1, HIV-integrase (Human immunodeficiency virus type 1 group M subtype B, UniProt P04585); assay: in-vitro activity against HIV-integrase (HIV Integrase Inhibition, SPA bead assay); format: biochemical; conditions: Table 1a; recombinant integrase, activity class
T1 construct: Recombinant integrase (0.26 ng) was incubated with the beads
Outline: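 Recombinant integrase (0.26 ng) pre-bound for 90 min at 37 °C to biotinylated substrate DNA on streptavidin SPA beads, then washed. Inhibitors added with 33P-labelled target DNA; reaction stopped with 10 mM EDTA. Scintillation CPM taken as integration signal.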

Cc1ncn(-c2ccccc2CNC(=O)c2nc3n(c(=O)c2O)CCCOC32CCOCC2)n1 [Example 121, Spiro[4H-pyran-4,10′(4′H)-[6H]pyrimido[2,1-c][1,4]oxazepine]-2′-carboxamide, 2,3,5,6,7,8′-hexahydro-3′-hydroxy-N-[[2-(3-methyl-1H-1,2,4-triazol-1-yl)phenyl]methyl]-4′-oxo-]
pIC50 [1]: 7.00 to 8.00 | melting point: 247 °C (dec.)
